Results on 1 molecule are retold here after patent publication US20080025938A1, “Method and composition for permanently shaping hair” (priority 2006, published 2008).

One series has as its system hair. Kind of series: Permanent waving of hair on curlers with the composition, then oxidative fixing; assessed by hairdresser and customer. Type of series: in vivo, human. Conditions: used alone as the hair keratine reducing agent. An excerpt:
The method of permanent shaping of human hair according to the invention is defined as: A method for permanent shaping of hair, said method comprising the steps of: • (a) putting the hair in a desired shape; • (b) before and/or after the hair is put in the desired shape, applying an amount of a permanent shaping composition to the hair, and allowing the permanent shaping composition to act on the hair for a predetermined acting time sufficient for the permanent shaping of the hair; • (c) subsequently rinsing the hair with water or applying an intermediate treatment agent; • (d) performing an oxidative post-treatment of the hair; • (e) after the oxidative post-treatment, rinsing the hair with water and drying the hair, wherein said permanent shaping composition is a composition according to any-one of claims 1 to 13. Details of the method are given as follows. First the hair (which is washed and towel-dried) is separated into multiple sections and then these sections are rolled onto curlers. […] After the rolling on curlers is finished, the curlers are thoroughly wetted down using the required quantity of the permanent shaping composition, preferably about 60 g to about 120 g. […] The fixing composition is used in a quantity of about 50 g to about 200 g, preferably about 80 g to about 100 g, depending on hair thickness and length. […]

For series [1] the following is noted: versus N-methylmercaptoacetamide and N-hydroxyethylmercaptoacetamide; cited from earlier work.

For `O=C(CS)NCCCO` [N-(3′-hydroxypropyl)-2-mercapto-acetamide], the “fastness of the permanent shaped hair to humidity, particularly sweat” value with hair was “not sufficient”. Further, the sensitization rates result in series [1] is “substantially lower sensitization rates”.
